Among the data in ChEMBL document CHEMBL1137831, “Synthesis and antibacterial activity of some aryloxy/thioaryloxy oxazolidinone derivatives” (2004) are MIC values, retold here.

One experiment concerns Bacillus cereus. As to the kind of experiment: Minimal inhibitory concentration against Bacillus cereus. In kind it is functional.
Experiment [1] has as its system Salmonella enterica subsp. enterica serovar Abony. As to the kind of experiment: Minimal inhibitory concentration against Salmonella abony NCTC 6017. Type of experiment: functional.
The test system of experiment [2] is Staphylococcus epidermidis. In words: Minimal inhibitory concentration against Staphylococcus epidermidis ATCC 12228. Type of experiment: functional.
The subject of experiment [3] is Enterococcus faecalis. As to the kind of experiment: Minimal inhibitory concentration against Enterococcus faecalis (VRE) ATCC 346-VRE. Type of experiment: functional.
Experiment [4] relates to Enterococcus faecalis. As to the kind of experiment: Minimal inhibitory concentration against Enterococcus faecalis ATCC 29212. In kind it is functional.
Another experiment relates to Klebsiella pneumoniae. As to the kind of experiment: Minimal inhibitory concentration against Klebsiella pneumoniae ATCC 15380. Type of experiment: functional.
Experiment [5] relates to Staphylococcus aureus. In words: Minimal inhibitory concentration against Staphylococcus aureus ATCC 25923. Type of experiment: functional.
Experiment [6] concerns Staphylococcus aureus. As to the kind of experiment: Minimal inhibitory concentration against methicillin resistant Staphylococcus aureus ST450; value ranges from 4-16 ug/mL. In kind it is functional.
The test system of the next experiment is Enterococcus faecium. In words: Minimal inhibitory concentration against Enterococcus faecium 6A-VRE. Type of experiment: functional.
A further experiment deals with Escherichia coli. As to the kind of experiment: Minimal inhibitory concentration against Escherichia coli ATCC 25922. Type of experiment: functional.
A further experiment concerns Enterococcus durans. In words: Minimal inhibitory concentration against Enterococcus durans ATCC 581. Type of experiment: functional.
The next experiment has as its system Salmonella typhi. In words: Minimal inhibitory concentration against Salmonella typhi (MDR) ICH 098. In kind it is functional, Salmonella enterica subsp. enterica serovar Typhi. The note with it: Salmonella enterica.
In the next experiment the test system is Serratia marcescens. As to the kind of experiment: Minimal inhibitory concentration against Serratia marcescens ATCC 12999. In kind it is functional.
For the next experiment, the system named is Pseudomonas aeruginosa. In words: Minimal inhibitory concentration against Pseudomonas aeruginosa ATCC 27853. In kind it is functional.
Experiment [7] has as its system Staphylococcus epidermidis. As to the kind of experiment: Minimal inhibitory concentration against methicillin resistant Staphylococcus epidermidis ATCC 23760. In kind it is functional.

Converted amounts (≈) assume the structure as drawn.

Broadly, the MIC is the smallest concentration in the dilution series that meets the test's criterion for growth inhibition.

Regarding `CC(=O)Nc1ccc(Oc2ccc(N3C[C@H](C/N=C(/S)NN)OC3=O)cc2F)cc1`, the MIC was > 16 mg/L against Bacillus cereus; > 16 mg/L in experiment [1]; 4 mg/L (≈ 9.23 µM) in [2]; 8 mg/L (≈ 18.5 µM) in the experiment on Enterococcus faecalis [3]; 4 mg/L (≈ 9.23 µM) with Enterococcus faecalis [4]; > 16 mg/L against Klebsiella pneumoniae. Further, the MIC was 4 mg/L (≈ 9.23 µM) against Staphylococcus aureus [5]; 16 mg/L (≈ 36.9 µM) with Staphylococcus aureus [6]; 4 mg/L (≈ 9.23 µM) in the experiment with Enterococcus faecium; > 16 mg/L in the experiment with Escherichia coli; 4 mg/L (≈ 9.23 µM) in the experiment on Enterococcus durans; > 16 mg/L against Salmonella typhi. For the same compound, the MIC in the experiment on Serratia marcescens is > 16 mg/L; in the experiment on Pseudomonas aeruginosa, > 16 mg/L; in experiment [7], 8 mg/L (≈ 18.5 µM).
